Key:
[1] = system: KB; test: The compound was tested for its cytotoxic concentration required to inhibit the replication of human tumor nasopharynx (KB) cell lines; type: functional, cell-based
[2] = system: KB; test: The compound was tested for its cytotoxic concentration required to inhibit the replication of human tumor nasopharynx (KB-VIN) cell lines which is drug resistant; type: functional, cell-based
[3] = system: A9; test: Cytotoxicity against Beta- tubulin mutant expressing […] cell line of humans was tested; type: functional, cell-based; conditions: Homo sapiens
[4] = system: 1A9; test: Cytotoxicity against ovarian cancer cell line (1A-9) of humans was determined; type: functional, cell-based; conditions: Homo sapiens
[5] = system: A9; test: Percentage inhibition at higher concentration (100 nM) against Beta- tubulin mutant expressing […] cell line; type: functional, Homo sapiens

COc1ccc2c(c1)C=CCc1cc(OC)c(OC)c(OC)c1-2 was tested, and the IC50 [1] was 60 nM, the IC50 [2] was 68 nM and the IC50 [3] was 78 nM. The IC50 [4] was 60 nM.

Molecule COc1ccc2c(c1)[C@@H](NC(=O)CCl)CCc1cc(OC)c(OC)c(OC)c1-2 has an IC50 [1] of 12 nM, an IC50 [2] of 9.1 nM and an IC50 [3] of 13.8 nM. It also gave an IC50 [4] of 2.7 nM.

For COc1ccc2c(c1)[C@@H]1O[C@@H]1Cc1cc(OC)c(OC)c(OC)c1-2, the IC50 [1] was 62 nM, the IC50 [2] was 62 nM and the inhibition at 0.1 µM [5] was 17%. The IC50 [3] was > 100 nM and the IC50 [4] was 82 nM.

COc1cc2c(c(OC)c1OC)-c1ccc(OC)c(=O)cc1[C@@H](NC(C)=O)CC2 [COLCHICINE] was tested, and the IC50 [1] was 11.9 nM, the IC50 [2] was > 100 nM and the IC50 [3] was 13.8 nM. It also gave an IC50 [4] of 11.9 nM.

Source: ChEMBL document CHEMBL1135863, “Antitumor agents. Part 215: antitubulin effects of cytotoxic B-ring modified allocolchicinoids” (Bioorg Med Chem Lett, 2002)
